Values quoted from earlier work in patent US20230414620A1, “TOPICAL RUXOLITINIB FOR TREATING LICHEN PLANUS” (Incyte Corporation, priority 2020, published 2023).

How the values were obtained:
[1] = test system: refractory dermatomyositis (DM); conditions: case report
[2] = test system: steroid refractory graft versus host disease (GVHD); conditions: systemic JAK1, 2 inhibition

N#CC[C@H](C1CCCC1)n1cc(-c2ncnc3[nH]ccc23)cn1 [ruxolitinib, (R)-3-(4-(7H-pyrrolo[2,3-d]pyrimidin-4-yl)-1H-pyrazol-1-yl)-3-cyclopentylpropanenitrile]
response in refractory dermatomyositis [1]: exceptional responder
efficacy in steroid refractory GVHD [2]: highly effective
